Measured values: patent publication US10844077B2, “Thiazolyl-containing compounds for treating proliferative diseases” (Dana-Farber Cancer Institute, Inc., priority 2014, dated 2020)
Read-outs that look alike come from different tables or passages of the source.

Experiments:
Type in all cases: binding
broad panel of kinases [1] = biological target: broad panel of kinases (Homo sapiens, UniProt Q12852); conditions: DLK; 1 μM
broad panel of kinases [2] = biological target: broad panel of kinases (Homo sapiens, UniProt Q16816); conditions: PHKG1; 1 μM
broad panel of kinases [3] = biological target: broad panel of kinases (Homo sapiens, UniProt O15111); conditions: IKK-alpha; 1 μM
broad panel of kinases [4] = biological target: broad panel of kinases (Homo sapiens, UniProt Q9BWU1); conditions: CDK11; 1 μM
broad panel of kinases [5] = biological target: broad panel of kinases (Homo sapiens, UniProt P50750); conditions: CDK9; 1 μM
broad panel of kinases [6] = biological target: broad panel of kinases (Homo sapiens, UniProt Q9UL54); conditions: TAOK2; 1 μM
broad panel of kinases [7] = biological target: broad panel of kinases (Homo sapiens, UniProt Q96L34); conditions: MARK4; 1 μM
broad panel of kinases [8] = biological target: broad panel of kinases (Homo sapiens, UniProt P00533, G719C); conditions: EGFR(G719C); 1 μM
broad panel of kinases [9] = biological target: broad panel of kinases (Homo sapiens, UniProt Q13188); conditions: MST2; 1 μM
broad panel of kinases [10] = biological target: broad panel of kinases (Homo sapiens, UniProt Q52WX2); conditions: SBK1; 1 μM
broad panel of kinases [11] = biological target: broad panel of kinases (Homo sapiens, UniProt P10721, D816V); conditions: KIT(D816V); 1 μM
broad panel of kinases [12] = biological target: broad panel of kinases (Homo sapiens, UniProt P08581); conditions: MET; 1 μM
broad panel of kinases (Homo sapiens, UniProt P08581), sequence (P08581 25-1390 limits assumed): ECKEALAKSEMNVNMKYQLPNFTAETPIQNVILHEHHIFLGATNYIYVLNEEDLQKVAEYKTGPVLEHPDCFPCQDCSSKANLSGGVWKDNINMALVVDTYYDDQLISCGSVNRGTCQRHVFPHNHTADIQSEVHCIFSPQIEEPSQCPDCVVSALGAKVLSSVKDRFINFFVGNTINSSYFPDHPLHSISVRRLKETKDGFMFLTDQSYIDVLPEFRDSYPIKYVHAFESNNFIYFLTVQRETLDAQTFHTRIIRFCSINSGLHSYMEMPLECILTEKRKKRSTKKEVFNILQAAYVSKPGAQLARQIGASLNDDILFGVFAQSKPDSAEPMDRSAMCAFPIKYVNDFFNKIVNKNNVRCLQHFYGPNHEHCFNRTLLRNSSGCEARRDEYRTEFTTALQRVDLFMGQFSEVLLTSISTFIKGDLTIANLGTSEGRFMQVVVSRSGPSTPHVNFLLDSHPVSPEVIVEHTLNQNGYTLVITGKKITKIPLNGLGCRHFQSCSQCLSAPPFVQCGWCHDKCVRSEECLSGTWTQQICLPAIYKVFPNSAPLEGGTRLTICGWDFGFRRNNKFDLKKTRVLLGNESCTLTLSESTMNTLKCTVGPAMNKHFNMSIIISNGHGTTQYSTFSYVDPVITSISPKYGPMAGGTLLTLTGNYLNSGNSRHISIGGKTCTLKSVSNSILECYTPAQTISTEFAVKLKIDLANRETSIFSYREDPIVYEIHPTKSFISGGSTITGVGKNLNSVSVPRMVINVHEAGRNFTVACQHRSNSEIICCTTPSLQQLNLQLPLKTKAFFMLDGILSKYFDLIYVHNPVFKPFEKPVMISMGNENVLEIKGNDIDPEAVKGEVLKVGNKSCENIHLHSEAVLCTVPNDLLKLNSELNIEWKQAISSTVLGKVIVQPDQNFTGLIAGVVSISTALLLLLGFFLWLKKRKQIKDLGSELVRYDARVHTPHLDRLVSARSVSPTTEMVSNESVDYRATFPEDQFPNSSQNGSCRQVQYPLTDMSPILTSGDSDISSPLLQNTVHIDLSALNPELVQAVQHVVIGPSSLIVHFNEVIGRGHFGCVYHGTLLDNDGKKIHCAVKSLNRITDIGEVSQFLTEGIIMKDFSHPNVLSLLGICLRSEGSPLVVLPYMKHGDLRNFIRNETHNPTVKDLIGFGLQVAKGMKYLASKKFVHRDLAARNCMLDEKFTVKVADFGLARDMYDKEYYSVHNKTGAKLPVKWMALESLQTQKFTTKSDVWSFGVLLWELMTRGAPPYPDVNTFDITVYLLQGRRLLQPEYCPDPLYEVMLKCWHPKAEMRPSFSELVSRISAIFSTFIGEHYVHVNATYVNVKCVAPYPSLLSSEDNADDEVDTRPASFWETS

broad panel of kinases [13] = biological target: broad panel of kinases (Homo sapiens, UniProt P00519, E255K); conditions: ABL1(E255K)-phosphorylated; 1 μM
broad panel of kinases [14] = biological target: broad panel of kinases (Homo sapiens, UniProt Q8TDC3); conditions: BRSK1; 1 μM
broad panel of kinases [15] = biological target: broad panel of kinases (Homo sapiens, UniProt Q13546); conditions: RIPK1; 1 μM
broad panel of kinases [16] = biological target: broad panel of kinases (Homo sapiens, UniProt Q13882); conditions: BRK; 1 μM
broad panel of kinases [17] = biological target: broad panel of kinases (Homo sapiens, UniProt P12931); conditions: SRC; 1 μM
broad panel of kinases [18] = biological target: broad panel of kinases (Homo sapiens, UniProt Q9BUB5); conditions: MKNK1; 1 μM
broad panel of kinases [19] = biological target: broad panel of kinases (Homo sapiens, UniProt Q8NEV4); conditions: MYO3A; 1 μM
broad panel of kinases [20] = biological target: broad panel of kinases (Homo sapiens, UniProt Q13131); conditions: AMPK-alpha1; 1 μM
broad panel of kinases [21] = biological target: broad panel of kinases (Homo sapiens, UniProt P10721, T670I/V559D); conditions: KIT(V559D, T670I); 1 μM
broad panel of kinases [22] = biological target: broad panel of kinases (Homo sapiens, UniProt P22455); conditions: FGFR4; 1 μM
broad panel of kinases (Homo sapiens, UniProt P22455), sequence (P22455 22-802 limits assumed): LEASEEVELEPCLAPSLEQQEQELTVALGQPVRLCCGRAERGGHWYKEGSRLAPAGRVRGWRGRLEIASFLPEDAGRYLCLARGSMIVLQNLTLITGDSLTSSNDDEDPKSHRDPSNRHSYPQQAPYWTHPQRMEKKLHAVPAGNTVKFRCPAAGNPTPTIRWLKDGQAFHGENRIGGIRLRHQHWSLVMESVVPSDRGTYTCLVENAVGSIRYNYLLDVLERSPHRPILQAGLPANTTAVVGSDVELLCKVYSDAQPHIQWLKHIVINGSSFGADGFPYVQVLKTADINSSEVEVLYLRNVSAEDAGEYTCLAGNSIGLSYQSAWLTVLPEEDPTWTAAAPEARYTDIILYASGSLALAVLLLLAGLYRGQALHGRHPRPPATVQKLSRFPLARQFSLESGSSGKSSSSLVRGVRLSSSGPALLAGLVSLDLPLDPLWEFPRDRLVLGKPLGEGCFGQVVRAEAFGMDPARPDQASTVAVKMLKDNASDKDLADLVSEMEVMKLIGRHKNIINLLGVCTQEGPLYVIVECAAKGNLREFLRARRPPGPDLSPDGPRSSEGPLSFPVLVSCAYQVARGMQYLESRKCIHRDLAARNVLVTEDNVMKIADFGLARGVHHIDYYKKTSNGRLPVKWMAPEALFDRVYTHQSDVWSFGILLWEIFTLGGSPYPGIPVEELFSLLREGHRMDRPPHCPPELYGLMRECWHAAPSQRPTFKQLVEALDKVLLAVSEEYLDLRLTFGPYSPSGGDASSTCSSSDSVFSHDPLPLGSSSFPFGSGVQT

broad panel of kinases [23] = biological target: broad panel of kinases (Homo sapiens, UniProt Q9H422); conditions: HIPK3; 1 μM
broad panel of kinases [24] = biological target: broad panel of kinases (Homo sapiens, UniProt P00533, T790M); conditions: EGFR(T790M); 1 μM
broad panel of kinases [25] = biological target: broad panel of kinases (Homo sapiens, UniProt Q15375); conditions: EPHA7; 1 μM
broad panel of kinases [26] = biological target: broad panel of kinases (Homo sapiens, UniProt P22694); conditions: PKAC-beta; 1 μM
broad panel of kinases [27] = biological target: broad panel of kinases (Homo sapiens, UniProt P31152); conditions: ERK4; 1 μM
broad panel of kinases [28] = biological target: broad panel of kinases (Homo sapiens, UniProt Q13153); conditions: PAK1; 1 μM
broad panel of kinases (Homo sapiens, UniProt Q13153), sequence (Q13153 2-545 limits assumed): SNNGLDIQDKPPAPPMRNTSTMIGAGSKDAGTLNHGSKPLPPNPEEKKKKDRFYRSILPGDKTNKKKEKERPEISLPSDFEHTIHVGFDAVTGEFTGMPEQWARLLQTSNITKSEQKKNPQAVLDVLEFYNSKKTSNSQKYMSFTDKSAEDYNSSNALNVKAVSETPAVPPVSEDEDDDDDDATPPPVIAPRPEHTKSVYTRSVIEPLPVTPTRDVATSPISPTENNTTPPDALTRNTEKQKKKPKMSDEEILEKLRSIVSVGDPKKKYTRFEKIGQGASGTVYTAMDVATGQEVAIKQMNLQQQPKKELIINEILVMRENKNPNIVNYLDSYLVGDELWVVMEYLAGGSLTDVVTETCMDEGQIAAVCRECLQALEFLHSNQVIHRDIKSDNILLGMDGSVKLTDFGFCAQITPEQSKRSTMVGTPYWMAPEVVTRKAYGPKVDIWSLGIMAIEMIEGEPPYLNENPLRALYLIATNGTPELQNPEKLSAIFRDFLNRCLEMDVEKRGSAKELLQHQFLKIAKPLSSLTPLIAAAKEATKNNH

broad panel of kinases [29] = biological target: broad panel of kinases (Homo sapiens, UniProt Q15835); conditions: GRK1; 1 μM
broad panel of kinases [30] = biological target: broad panel of kinases (Homo sapiens, UniProt O94921); conditions: PFTK1; 1 μM
broad panel of kinases [31] = biological target: broad panel of kinases (Homo sapiens, UniProt P07333); conditions: 1 μM
broad panel of kinases (Homo sapiens, UniProt P07333), sequence (P07333 20-972 limits assumed): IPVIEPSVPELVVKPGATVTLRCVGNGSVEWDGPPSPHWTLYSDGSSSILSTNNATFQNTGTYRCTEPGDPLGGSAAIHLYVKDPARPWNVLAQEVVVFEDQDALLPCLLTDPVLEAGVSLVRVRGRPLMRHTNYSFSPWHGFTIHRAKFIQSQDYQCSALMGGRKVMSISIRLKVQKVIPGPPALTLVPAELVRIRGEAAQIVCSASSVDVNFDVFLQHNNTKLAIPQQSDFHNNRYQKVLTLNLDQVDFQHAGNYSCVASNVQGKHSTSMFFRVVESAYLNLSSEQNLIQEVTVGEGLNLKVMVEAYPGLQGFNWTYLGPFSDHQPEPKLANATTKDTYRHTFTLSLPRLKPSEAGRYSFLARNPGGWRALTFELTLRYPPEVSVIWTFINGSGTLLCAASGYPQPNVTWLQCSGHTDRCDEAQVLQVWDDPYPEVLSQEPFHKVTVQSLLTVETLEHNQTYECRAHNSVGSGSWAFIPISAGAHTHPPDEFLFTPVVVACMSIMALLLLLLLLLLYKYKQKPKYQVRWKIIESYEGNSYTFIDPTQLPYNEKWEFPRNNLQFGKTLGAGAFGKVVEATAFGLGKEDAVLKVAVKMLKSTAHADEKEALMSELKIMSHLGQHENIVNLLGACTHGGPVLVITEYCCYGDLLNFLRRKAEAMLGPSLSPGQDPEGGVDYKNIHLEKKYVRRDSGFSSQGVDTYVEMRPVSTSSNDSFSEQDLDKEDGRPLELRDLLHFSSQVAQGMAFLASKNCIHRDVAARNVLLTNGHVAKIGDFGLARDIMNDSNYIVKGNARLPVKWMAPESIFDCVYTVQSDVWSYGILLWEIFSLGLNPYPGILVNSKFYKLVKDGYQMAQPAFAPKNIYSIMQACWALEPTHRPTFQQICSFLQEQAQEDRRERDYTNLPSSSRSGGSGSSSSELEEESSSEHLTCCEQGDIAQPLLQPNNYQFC

broad panel of kinases [32] = biological target: broad panel of kinases (Homo sapiens, UniProt P36888); conditions: 1 μM
broad panel of kinases (Homo sapiens, UniProt P36888), sequence (P36888 27-993 limits assumed): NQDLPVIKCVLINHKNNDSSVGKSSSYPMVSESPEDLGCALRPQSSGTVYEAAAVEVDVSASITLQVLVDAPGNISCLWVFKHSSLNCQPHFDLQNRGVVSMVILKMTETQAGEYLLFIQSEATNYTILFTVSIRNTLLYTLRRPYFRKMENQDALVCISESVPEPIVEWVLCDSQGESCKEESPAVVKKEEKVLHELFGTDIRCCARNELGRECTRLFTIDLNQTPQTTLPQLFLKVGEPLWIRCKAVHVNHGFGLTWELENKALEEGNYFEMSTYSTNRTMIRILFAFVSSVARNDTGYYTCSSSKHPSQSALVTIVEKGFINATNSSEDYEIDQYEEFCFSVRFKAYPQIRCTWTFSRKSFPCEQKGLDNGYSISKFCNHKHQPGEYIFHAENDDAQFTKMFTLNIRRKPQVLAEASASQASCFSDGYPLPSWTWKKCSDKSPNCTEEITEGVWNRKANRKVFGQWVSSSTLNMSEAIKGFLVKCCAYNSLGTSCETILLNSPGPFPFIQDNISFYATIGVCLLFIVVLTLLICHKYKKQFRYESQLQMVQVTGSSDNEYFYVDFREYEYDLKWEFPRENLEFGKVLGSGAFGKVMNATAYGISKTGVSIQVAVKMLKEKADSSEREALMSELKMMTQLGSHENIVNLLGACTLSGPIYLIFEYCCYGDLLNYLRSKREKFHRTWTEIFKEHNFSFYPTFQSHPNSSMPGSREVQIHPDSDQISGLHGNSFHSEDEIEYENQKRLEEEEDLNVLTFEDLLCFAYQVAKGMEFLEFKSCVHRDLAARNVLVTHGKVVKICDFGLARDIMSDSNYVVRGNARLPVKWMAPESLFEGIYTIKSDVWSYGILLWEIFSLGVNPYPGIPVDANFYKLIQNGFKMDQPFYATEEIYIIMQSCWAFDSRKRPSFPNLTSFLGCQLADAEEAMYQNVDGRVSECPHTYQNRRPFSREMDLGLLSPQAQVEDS

broad panel of kinases [33] = biological target: broad panel of kinases (Homo sapiens, UniProt Q9H2G2); conditions: SLK; 1 μM
broad panel of kinases [34] = biological target: broad panel of kinases (Homo sapiens, UniProt P48729); conditions: CSNK1A1; 1 μM
broad panel of kinases (Homo sapiens, UniProt P48729), sequence (P48729 2-337 limits assumed): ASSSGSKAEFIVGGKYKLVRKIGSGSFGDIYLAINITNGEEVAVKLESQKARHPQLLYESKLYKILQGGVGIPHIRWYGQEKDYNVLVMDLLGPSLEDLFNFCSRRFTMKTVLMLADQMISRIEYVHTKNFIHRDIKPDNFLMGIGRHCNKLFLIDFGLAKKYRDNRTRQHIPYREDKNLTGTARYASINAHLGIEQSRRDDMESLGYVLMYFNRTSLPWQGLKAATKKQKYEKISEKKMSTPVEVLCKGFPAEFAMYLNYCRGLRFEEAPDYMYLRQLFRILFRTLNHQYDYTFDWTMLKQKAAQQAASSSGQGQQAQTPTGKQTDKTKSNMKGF

broad panel of kinases [35] = biological target: broad panel of kinases (Homo sapiens, UniProt Q15303); conditions: ERBB4; 1 μM
broad panel of kinases [36] = biological target: broad panel of kinases (Homo sapiens, UniProt Q86YV6); conditions: MYLK4; 1 μM

Row | SMILES | percent of control binding remaining (lower = stronger binding) (broad panel of kinases [1]) | percent of control binding remaining (lower = stronger binding) (broad panel of kinases [2]) | percent of control binding remaining (lower = stronger binding) (broad panel of kinases [3]) | percent of control binding remaining (lower = stronger binding) (broad panel of kinases [4]) | percent of control binding remaining (lower = stronger binding) (broad panel of kinases [5]) | percent of control binding remaining (lower = stronger binding) (broad panel of kinases [6]) | percent of control binding remaining (lower = stronger binding) (broad panel of kinases [7]) | percent of control binding remaining (lower = stronger binding) (broad panel of kinases [8]) | percent of control binding remaining (lower = stronger binding) (broad panel of kinases [9]) | percent of control binding remaining (lower = stronger binding) (broad panel of kinases [10]) | percent of control binding remaining (lower = stronger binding) (broad panel of kinases [11]) | percent of control binding remaining (lower = stronger binding) (broad panel of kinases [12]) | percent of control binding remaining (lower = stronger binding) (broad panel of kinases [14]) | percent of control binding remaining (lower = stronger binding) (broad panel of kinases [15]) | percent of control binding remaining (lower = stronger binding) (broad panel of kinases [16]) | percent of control binding remaining (lower = stronger binding) (broad panel of kinases [17]) | percent of control binding remaining (lower = stronger binding) (broad panel of kinases [18]) | percent of control binding remaining (lower = stronger binding) (broad panel of kinases [19]) | percent of control binding remaining (lower = stronger binding) (broad panel of kinases [20]) | percent of control binding remaining (lower = stronger binding) (broad panel of kinases [21]) | other results
1 | C=CC(=O)N1CC[C@H](Nc2nc(CN3CCOCC3)cc(Nc3ncc(C(=O)Nc4c(C)cccc4C)s3)n2)C1 [Example I-2] | 98% | 100% | 93% | 98% | 90% | 65% | 91% | 23% | 69% | 54% | 1.7% | 97% | 100% | 100% | 1.6% | 0% | 100% | 93% | 100% | 100% | percent of control binding remaining (lower = stronger binding) (broad panel of kinases [13]): 0.45%; percent of control binding remaining (lower = stronger binding) (broad panel of kinases [22]): 100%; percent of control binding remaining (lower = stronger binding) (broad panel of kinases [23]): 95%; percent of control binding remaining (lower = stronger binding) (broad panel of kinases [24]): 48%; percent of control binding remaining (lower = stronger binding) (broad panel of kinases [25]): 100%; percent of control binding remaining (lower = stronger binding) (broad panel of kinases [26]): 92%; percent of control binding remaining (lower = stronger binding) (broad panel of kinases [27]): 90%; percent of control binding remaining (lower = stronger binding) (broad panel of kinases [28]): 100%; percent of control binding remaining (lower = stronger binding) (broad panel of kinases [29]): 94%; percent of control binding remaining (lower = stronger binding) (broad panel of kinases [30]): 72%; percent of control binding remaining (lower = stronger binding) (broad panel of kinases [31]; CSF1R-autoinhibited): 1.4%; percent of control binding remaining (lower = stronger binding) (broad panel of kinases [31]; CSF1R): 2.6%; percent of control binding remaining (lower = stronger binding) (broad panel of kinases [32]; FLT3-autoinhibited): 100%; percent of control binding remaining (lower = stronger binding) (broad panel of kinases [32]; FLT3): 100%; percent of control binding remaining (lower = stronger binding) (broad panel of kinases [33]): 96%; percent of control binding remaining (lower = stronger binding) (broad panel of kinases [34]): 100%; percent of control binding remaining (lower = stronger binding) (broad panel of kinases [35]): 0.6%; percent of control binding remaining (lower = stronger binding) (broad panel of kinases [36]): 98%
2 | C=CC(=O)N1CC[C@H](Nc2nccc(Nc3ncc(C(=O)Nc4c(C)cccc4C)s3)n2)C1 [Example I-3] | 100% | 99% | 100% | 83% | 75% | 67% | 80% | 14% | 94% | 58% | 14% | 94% | 100% | 100% | 9.3% | 0% | 100% | 96% | 98% | 100% | % change compared to control (broad panel of kinases [13]): 0.5%; percent of control binding remaining (lower = stronger binding) (broad panel of kinases [22]): 100%; percent of control binding remaining (lower = stronger binding) (broad panel of kinases [23]): 100%; percent of control binding remaining (lower = stronger binding) (broad panel of kinases [24]): 56%; percent of control binding remaining (lower = stronger binding) (broad panel of kinases [25]): 100%; percent of control binding remaining (lower = stronger binding) (broad panel of kinases [26]): 100%; percent of control binding remaining (lower = stronger binding) (broad panel of kinases [27]): 62%; percent of control binding remaining (lower = stronger binding) (broad panel of kinases [28]): 95%; percent of control binding remaining (lower = stronger binding) (broad panel of kinases [29]): 97%; percent of control binding remaining (lower = stronger binding) (broad panel of kinases [30]): 99%; percent of control binding remaining (lower = stronger binding) (broad panel of kinases [31]; CSF1R-autoinhibited): 3.2%; percent of control binding remaining (lower = stronger binding) (broad panel of kinases [31]; CSF1R): 3.3%; percent of control binding remaining (lower = stronger binding) (broad panel of kinases [32]; FLT3-autoinhibited): 100%; percent of control binding remaining (lower = stronger binding) (broad panel of kinases [32]; FLT3): 84%; percent of control binding remaining (lower = stronger binding) (broad panel of kinases [33]): 94%; percent of control binding remaining (lower = stronger binding) (broad panel of kinases [34]): 100%; percent of control binding remaining (lower = stronger binding) (broad panel of kinases [35]): 0.2%; percent of control binding remaining (lower = stronger binding) (broad panel of kinases [36]): 100%
